The values below come from patent publication US20250049812A1, “Compounds that Inhibit Necroptosis and Their Preparation Methods” (SHANGHAI INSTITUTE OF ORGANIC CHEMISTRY, CHINESE ACADEMY OF …, priority 2021, published 2025).

One may read the IC50 as the concentration that gives 50% inhibition. A word on the Cmax: it is the maximum level reached in the sampled fluid or tissue. In general, Tmax refers to the time from dosing to the highest level. Usually half-life stands for the time needed for the level to fall by half in the phase considered. High values mean slow loss, low ones fast loss. Broadly, the bioavailability is the share of a dose that reaches the circulation, judged against a reference dose that is usually intravenous.

SMILES strings stand for the structures. Read-outs that look alike come from different tables or passages of the source. Where only a bound is given, the exact number is not on record here.

The subject of one data set is Jurkat FADD (−/−) Cells. The experiment in a line: TNF-α induced necroptosis of Jurkat FADD-deficient cells (CellTiter-Glo cell survival). It counts as cell-based, human. The following applies: Homo sapiens. Summed up:
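Cells in RPMI 1640 with 10% FBS were pretreated for 1 h at 37 °C with compound (12-point threefold series from 25 μM, or 0.5 μM, in triplicate). They were then stimulated with TNFα added as a 5 ng/mL solution for 13 h. Survival was read by luminescence.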
In general terms: ATP-based viability assays read luminescence as a measure of living cells.

A further data set addresses T1, RIPK1 (Homo sapiens, UniProt Q13546).
T1 sequence (Q13546 1-671): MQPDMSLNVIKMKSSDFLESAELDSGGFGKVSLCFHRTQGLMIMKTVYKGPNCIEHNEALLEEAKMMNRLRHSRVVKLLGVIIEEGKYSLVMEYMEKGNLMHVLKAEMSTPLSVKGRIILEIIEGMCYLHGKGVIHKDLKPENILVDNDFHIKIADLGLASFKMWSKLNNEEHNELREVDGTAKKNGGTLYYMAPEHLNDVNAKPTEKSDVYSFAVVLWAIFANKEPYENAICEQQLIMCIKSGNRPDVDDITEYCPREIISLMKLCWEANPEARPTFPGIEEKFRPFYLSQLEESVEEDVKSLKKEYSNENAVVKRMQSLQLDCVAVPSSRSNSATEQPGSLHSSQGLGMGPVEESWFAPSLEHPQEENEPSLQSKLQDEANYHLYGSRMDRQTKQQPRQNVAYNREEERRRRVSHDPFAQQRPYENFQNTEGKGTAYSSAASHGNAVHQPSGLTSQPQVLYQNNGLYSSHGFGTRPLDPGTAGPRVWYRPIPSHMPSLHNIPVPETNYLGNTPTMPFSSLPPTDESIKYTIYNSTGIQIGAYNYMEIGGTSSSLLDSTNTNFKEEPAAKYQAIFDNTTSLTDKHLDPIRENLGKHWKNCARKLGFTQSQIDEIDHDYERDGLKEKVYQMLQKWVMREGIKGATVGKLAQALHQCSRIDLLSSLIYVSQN
The experiment in a line: RIPK1 activity inhibition test (NANOSYN). It counts as biochemical. The settings on record: 12 concentrations, threefold dilution, 1% DMSO. Here is the method:
The test compounds were dissolved in DMSO, with the highest concentration being […]. Subsequently, the concentrations were serially diluted threefold, with the DMSO concentration in the test medium maintained at 1%. IC50 values were calculated from data generated prom 12 tested concentrations.

Data set [1] in a line: Study of oral pharmacokinetics in rats. The settings on record: rat, in vivo, male SD rats, p.o., 5 mg/kg. How it is done: Healthy male SD rats were used as experimental animals. The intragastric (p.o.) administration was performed, with a dosage of 5 mg/kg or 15 mg/kg. Preparation: the compound was dissolved in a formulation made of 1% tween 80, 1% HMPC, and 98% water. The mixture was ground and shaken until the compound was uniformly distributed with a small particle size, and then 1 equivalent of methanesulfonic acid was added. The intravenous administration was performed with a dosage of 1 mg/kg. Preparation: 5% DMSO, 10% EtOH, 10% sulotol, and 75% physiological saline was added to the compound, and mixed well. Samples were taken at 5 minutes, 15 minutes, 30 minutes, 1 hour, 2 hours, 4 hours, 6 hours, and 8 hours after administration, and then the samples were analyzed using liquid chromatography tandem mass spectrometry (LC-MS/MS).

Where [2] appears, read: TNF-α induced necroptosis, Jurkat FADD-deficient cells, 13 hours, CellTiter-Glo, read-out: IC50.

Consider `CN1C(=O)[C@@H](NC(=O)c2nnc(Cc3ccccc3)[nH]2)Cn2cc(-c3cn(C)nc3C(F)(F)F)c3cccc1c32` [T-118, (S)-5-benzyl-N-(1-methyl-7-(1-methyl-3-(trifluoromethyl)-1H-pyrazol-4-yl)-2-oxo-1,2,3,4-tetrahydro-[1,4]diazepine [3,2,1-hi]indol-3-yl)-4H-1,2,4-triazole-3-carboxamide], for which the half-inhibitory concentration (IC50) in the data set on Jurkat FADD (−/−) Cells (setting [2]) was less than 10 nM; against RIPK1, 24.9 nM.

As to `CN1C(=O)C(NC(=O)c2nnc(Cc3ccccc3)[nH]2)Cc2cn(-c3ncccc3S(=O)(=O)C3CC3)c3cccc1c23` (racemic) [T-109, (±)-5-benzyl-N-(6-(3-(cyclopropylsulfonyl)pyridin-2-yl)-1-methyl-2-oxo-2,3,4,6-tetrahydro-1H-azacyclo [4,3,2-cd]indol-3-yl)-4H-1,2,4-triazole-3-carboxamide], in the data set with Jurkat FADD (−/−) Cells (setting [2]), the IC50 is less than 10 nM.

Turning to `COC(=O)C(=O)c1cn2c3c(cccc13)N(C)C(=O)[C@@H](NC(=O)c1nnc(Cc3ccccc3)[nH]1)C2` [T-92, Methyl(S)-2-(3-(5-benzyl-4H-1,2,4-triazole-3-carboxamide)-1-methyl-2-oxo-1,2,3,4-tetrahydro-[1,4]diazepine [3,2,1-hi]indol-7-yl)-2-oxoacetic Acid], the 50% inhibitory concentration (IC50) with Jurkat FADD (−/−) Cells (Jurkat, 13 h) is greater than 1000 nM.

Take `CN1C(=O)C(NC(=O)c2nnc(Cc3ccccc3)[nH]2)Cc2cn(CCO)c3cccc1c23` (racemic) [T-33, (±)-5-benzyl-N-(6-(2-hydroxyethyl)-1-methyl-2-oxo-2,3,4,6-tetrahydro-1H-azacyclo [4,3,2-cd]indol-3-yl)-4H-1,2,4-triazole-3-carboxamide]: in the data set on Jurkat FADD (−/−) Cells (Jurkat, 13 h), the IC50 lay in the range of 10 to 100 nM.

Regarding `CN1C(=O)C(NC(=O)c2nnc(Cc3ccccc3)[nH]2)Cc2cn(CCF)c3cccc1c23` (racemic) [T-26, (±)-5-benzyl-N-(6-(2-fluoroethyl)-1-methyl-2-oxo-2,3,4,6-tetrahydro-1H-azacyclo [4,3,2-cd]indol-3-yl)-4H-1,2,4-triazole-3-carboxamide], the 50% inhibitory concentration (IC50) with Jurkat FADD (−/−) Cells (setting [2]) lay within 10 to 100 nM.

On to `COc1ccc(C)nc1-n1cc2c3c(cccc31)N(C)C(=O)C(NC(=O)c1nnc(Cc3ccccc3)[nH]1)C2` (racemic) [T-64, (±)-5-benzyl-N-(6-(3-methoxy-6-methylpyridin-2-yl)-1-methyl-2-oxo-2,3,4,6-tetrahydro-1H-azacyclo [4,3,2-cd]indol-3-yl)-4H-1,2,4-triazole-3-carboxamide], for which, in the data set with Jurkat FADD (−/−) Cells (setting [2]), the half-inhibitory concentration (IC50) was less than 10 nM.

Turning to `CN1C(=O)C(NC(=O)c2nnc(Cc3ccccc3)[nH]2)Cn2cc(-c3ccccc3C(F)(F)F)c3cccc1c32` (racemic) [T-84, (±)-5-benzyl-N-(1-methyl-2-oxo-7-(2-(trifluoromethyl)phenyl)-1,2,3,4-tetrahydro-[1,4]diazepino [3,2,1-hi]indol-3-yl)-4H-1,2,4-triazole-3-carboxamide], in the data set on Jurkat FADD (−/−) Cells (setting [2]), the half-maximal inhibitory concentration (IC50) fell in the range of 10 to 100 nM.

Regarding `CN1C(=O)C(NC(=O)c2nnc(Cc3ccccc3)[nH]2)Cn2cc(-c3cc(C(F)(F)F)nn3C)c3cccc1c32` (racemic) [T-18, (±)-5-benzyl-N-(1-methyl-7-(1-methyl-3-(trifluoromethyl)-1H-pyrazol-5-yl)-2-oxo-1,2,3,4-tetrahydro-[1,4]diazepino [3,2,1-hi]indol-3-yl)-4H-1,2,4-triazole-3-carboxamide], the half-maximal inhibitory concentration (IC50) in the data set on Jurkat FADD (−/−) Cells (setting [2]) was less than 10 nM.

As for `CN1C(=O)C(N2CCc3c(nn(Cc4ccccc4)c3Cl)C2=O)Cn2cc(-c3ccnn3C)c3cccc1c32` (racemic) [T-89, (±)-3-(2-benzyl-3-chloro-7-oxo-2,4,5,7-tetrahydro-6H-pyrazole [3,4-c]pyridin-6-yl)-1-methyl-7-(1-methyl-1H-pyrazol-5-yl)-3,4-dihydro-[1,4]diazepine[3,2,1-hi]indole-2(1H)-one], the IC50 in the data set with Jurkat FADD (−/−) Cells (setting [2]) is 10 to 100 nM.

As to `Cc1nn(C)c(C)c1-c1cn2c3c(cccc13)N(C)C(=O)C(NC(=O)c1nnc(Cc3ccccc3)[nH]1)C2` (racemic) [T-114, (±)-5-benzyl-N-(1-methyl-2-oxo-7-(1,3,5-trimethyl-1H-pyrazol-4-yl)-1,2,3,4-tetrahydro-[1,4]diazepine [3,2,1-hi]indol-3-yl)-4H-1,2,4-triazole-3-carboxamide], the concentration for half-maximal inhibition (IC50) in the data set on Jurkat FADD (−/−) Cells (setting [2]) is less than 10 nM.

With `CN1C(=O)C(NC(=O)c2nnc(Cc3ccccc3)[nH]2)Cn2cc(-c3cnn(C)c3)c3cccc1c32` (racemic) [T-15, (±)-5-benzyl-N-(1-methyl-7-(1-methyl-1H-pyrazol-4-yl)-2-oxy-1,2,3,4-tetrahydro-[1,4]diazepino [3,2,1-hi]indol-3-yl)-4H-1,2,4-triazole-3-carboxamide], in the data set on Jurkat FADD (−/−) Cells (setting [2]), the IC50 was less than 10 nM.

Regarding `CN1C(=O)[C@@H](NC(=O)c2nnc(Cc3ccccc3)[nH]2)Cc2n[nH]c3cccc1c23` [T-72, (S)-5-benzyl-N-(6-methyl-7-oxo-6,7,8,9-tetrahydro-2H-azacyclo [4,3,2-cd]indazol-8-yl)-4H-1,2,4-triazole-3-carboxamide], in the data set with Jurkat FADD (−/−) Cells (setting [2]), the IC50 lay within 100 to 1000 nM.

Turning to `CN1C(=O)C(NC(=O)c2nnc(Cc3ccccc3)[nH]2)Cc2cn(-c3cnccc3CO)c3cccc1c23` (racemic) [T-48, (±)-5-benzyl-N-(6-(4-(hydroxymethyl)pyridin-3-yl)-1-methyl-2-oxo-2,3,4,6-tetrahydro-1H-azacyclo [4,3,2-cd]indol-3-yl)-4H-1,2,4-triazole-3-carboxamide], the IC50 in the data set with Jurkat FADD (−/−) Cells (setting [2]) is less than 10 nM.

For the compound `CN1C(=O)C(NC(=O)c2nnc(Cc3ccccc3)[nH]2)Cn2cc(I)c3cccc1c32` (racemic) [T-3, (±)-5-benzyl-N-(7-iodo-1-methyl-2-oxo-1,2,3,4-tetrahydro-[1,4]diazepino [3,2,1-hi]indol-3-yl)-4H-1,2,4-triazole-3-carboxamide], the IC50 in the data set with Jurkat FADD (−/−) Cells (setting [2]) fell in the range of 10 to 100 nM.

With `CN1C(=O)C(NC(=O)c2nnc(Cc3ccccc3)[nH]2)Cc2cn(-c3ncccc3C(F)(F)F)c3cccc1c23` (racemic) [T-40, (±)-5-benzyl-N-(1-methyl-2-oxo-6-(3-(trifluoromethyl)pyridin-2-yl)-2,3,4,6-tetrahydro-1H-azacyclo [4,3,2-cd]indol-3-yl)-4H-1,2,4-triazole-3-carboxamide], the IC50 in the data set with Jurkat FADD (−/−) Cells (setting [2]) is less than 10 nM. For the same compound, in data set [1], the highest level (Cmax) was 2230 ng/mL, the time to peak (Tmax) is 1 h and the half-life was 196 min. In addition, in data set [1] (i.v. 1 mg/kg), the bioavailability stood at 31.4%. Moreover, the AUC(0-t) in data set [1] (read-out: AUC0-8) worked out at 9040 ng·h/mL.

As for `CN1C(=O)C(NC(=O)c2nnc(Cc3ccccc3)[nH]2)Cn2ccc3cc(C#Cc4cnn(C)c4)cc1c32` (racemic) [T-9, (±)-5-benzyl-N-(1-methyl-9-((1-methyl-1H-pyrazol-4-yl)ethynyl)-2-oxy-1,2,3,4-tetrahydro-[1,4]diazepino [3,2,1-hi]indol-3-yl)-4H-1,2,4-triazole-3-carboxamide], the IC50 in the data set with Jurkat FADD (−/−) Cells (setting [2]) was less than 10 nM.

Regarding `CN(C)C(=O)c1cccnc1-n1cc2c3c(cccc31)N(C)C(=O)C(NC(=O)c1nnc(Cc3ccccc3)[nH]1)C2` (racemic) [T-57, (±)-2-(3-(5-benzyl-4H-1,2,4-triazole-3-carboxamide)-1-methyl-2-oxy-1,2,3,4-tetrahydro-6H-azacyclo [4,3,2-cd]indol-6-yl)-N,N-dimethylnicotinamide], the IC50 in the data set on Jurkat FADD (−/−) Cells (setting [2]) fell in the range of 100 to 1000 nM.

For the compound `CN1C(=O)C(N2CCc3c(nn(Cc4ccccc4)c3Cl)C2=O)Cc2c[nH]c3cccc1c23` (racemic) [T-32, (±)-3-(2-benzyl-3-chloro-7-oxo-2,4,5,7-tetrahydro-6H-pyrazole [3,4-c]pyridin-6-yl)-1-methyl-1,3,4,6-tetrahydro-2H-azacyclo [4,3,2-cd] indole-2-one], the half-maximal inhibitory concentration (IC50) in the data set on Jurkat FADD (−/−) Cells (setting [2]) was less than 10 nM.

Regarding `CCS(=O)(=O)c1cccnc1-n1cc2c3c(cccc31)N(C)C(=O)C(NC(=O)c1nnc(Cc3ccccc3)[nH]1)C2` (racemic) [T-108, (±)-5-benzyl-N-(6-(3-(ethylsulfonyl)pyridin-2-yl)-1-methyl-2-oxo-2,3,4,6-tetrahydro-1H-aza [4,3,2-cd]indol-3-yl)-4H-1,2,4-triazole-3-carboxamide], the half-inhibitory concentration (IC50) in the data set with Jurkat FADD (−/−) Cells (setting [2]) is 10 to 100 nM.
